Source: publication PMC3894853 (Journal of medicinal chemistry, 2013)
Where two headings read alike, the source gives them in different places.

Key:
hSERT WT = hSERT WT (Homo sapiens, UniProt P31645)
SERT = SERT (Rattus norvegicus, UniProt P31652); experiment: Radioligand binding assay for SERT, displacement of [3H]1; conditions: for Ki(NET)/Ki (SERT): selectivity ratio
NET = NET (Rattus norvegicus, UniProt Q9WTR4); experiment: Radioligand binding assay for NET, displacement of [3H]nisoxetine
[1] = 30 µM compound, 18°C, COS-7 membranes, hSERT WT
[2] = 30 µM compound, extrapolated from 24°C with the temperature factor of S-1

Sequence of hSERT WT (P31645 whole entry): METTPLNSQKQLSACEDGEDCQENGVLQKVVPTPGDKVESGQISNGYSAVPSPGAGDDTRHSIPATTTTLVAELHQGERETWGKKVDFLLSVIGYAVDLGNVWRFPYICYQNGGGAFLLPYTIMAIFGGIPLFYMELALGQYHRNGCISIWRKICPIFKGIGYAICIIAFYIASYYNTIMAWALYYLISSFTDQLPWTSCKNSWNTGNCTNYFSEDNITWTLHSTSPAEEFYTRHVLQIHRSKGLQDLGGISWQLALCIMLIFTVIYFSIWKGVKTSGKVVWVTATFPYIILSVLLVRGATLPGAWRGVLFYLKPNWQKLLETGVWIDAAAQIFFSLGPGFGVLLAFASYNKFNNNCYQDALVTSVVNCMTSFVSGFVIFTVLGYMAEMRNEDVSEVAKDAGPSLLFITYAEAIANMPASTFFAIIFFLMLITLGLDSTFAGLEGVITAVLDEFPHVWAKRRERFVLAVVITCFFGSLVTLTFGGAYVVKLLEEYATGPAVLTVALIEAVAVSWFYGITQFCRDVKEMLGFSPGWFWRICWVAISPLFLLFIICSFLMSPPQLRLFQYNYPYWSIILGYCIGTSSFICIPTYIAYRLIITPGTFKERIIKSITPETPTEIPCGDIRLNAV
Sequence of SERT (P31652 whole entry): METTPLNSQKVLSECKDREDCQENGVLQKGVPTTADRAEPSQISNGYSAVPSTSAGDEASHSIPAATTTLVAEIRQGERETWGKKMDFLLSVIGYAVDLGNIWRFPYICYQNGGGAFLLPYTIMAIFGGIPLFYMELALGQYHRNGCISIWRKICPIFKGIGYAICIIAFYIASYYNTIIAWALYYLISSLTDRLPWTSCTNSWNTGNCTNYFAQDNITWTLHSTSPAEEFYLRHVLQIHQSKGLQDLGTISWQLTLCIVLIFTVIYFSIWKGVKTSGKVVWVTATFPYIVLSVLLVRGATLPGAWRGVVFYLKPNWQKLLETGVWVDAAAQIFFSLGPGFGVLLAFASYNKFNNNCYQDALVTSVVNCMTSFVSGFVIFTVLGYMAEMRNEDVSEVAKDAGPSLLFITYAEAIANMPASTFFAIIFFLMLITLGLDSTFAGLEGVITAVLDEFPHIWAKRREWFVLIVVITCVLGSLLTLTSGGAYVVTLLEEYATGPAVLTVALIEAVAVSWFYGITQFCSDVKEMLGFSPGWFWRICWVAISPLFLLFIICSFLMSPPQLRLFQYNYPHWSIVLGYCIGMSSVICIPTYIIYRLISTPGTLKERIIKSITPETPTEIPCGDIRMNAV
Sequence of NET (Q9WTR4 1-597): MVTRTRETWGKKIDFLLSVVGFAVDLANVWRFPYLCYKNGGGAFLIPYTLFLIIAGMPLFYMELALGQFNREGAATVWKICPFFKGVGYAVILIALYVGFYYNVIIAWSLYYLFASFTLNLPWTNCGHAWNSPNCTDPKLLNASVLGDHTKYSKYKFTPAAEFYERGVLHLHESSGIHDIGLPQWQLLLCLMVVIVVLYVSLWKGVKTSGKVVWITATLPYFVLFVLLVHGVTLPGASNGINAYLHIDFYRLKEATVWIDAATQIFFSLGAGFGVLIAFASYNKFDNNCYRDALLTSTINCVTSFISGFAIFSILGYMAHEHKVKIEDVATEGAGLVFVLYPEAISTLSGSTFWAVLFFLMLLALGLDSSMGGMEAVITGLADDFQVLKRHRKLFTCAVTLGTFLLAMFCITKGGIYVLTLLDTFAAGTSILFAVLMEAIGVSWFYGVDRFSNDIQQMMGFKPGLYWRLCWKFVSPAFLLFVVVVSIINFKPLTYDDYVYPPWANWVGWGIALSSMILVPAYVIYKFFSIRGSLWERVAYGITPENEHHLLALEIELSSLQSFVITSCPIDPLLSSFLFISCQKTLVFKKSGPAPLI

SMILES | [3H] S-1 dissoc. t½ (min) at 18°C (hSERT WT; [1]) | [3H] S-1 dissoc. t½ (min) at 18°C (hSERT WT) | further results
CN(C)CCCC1(c2ccc(F)cc2)OCc2cc(/C=C/c3ccccc3)ccc21 (single isomer, unassigned; (+)) [(+)62] |  |  | 24°C dissociation t½ calculated to a t½ at 18°C (hSERT WT): 132.3 ± 8.5 min; [3H] S-1 dissoc. t½ (min) at 24°C (hSERT WT; 30 µM compound, 24°C, COS-7 membranes, hSERT WT): 54.9 ± 3.5 min
CN(C)CCCC1(c2ccc(F)cc2)OCc2cc(/C=C/c3ccccc3)ccc21 (single isomer, unassigned; (-)) [(−)62] | 37.3 ± 9.5 min |  | 
CN(C)CCCC1(c2ccc(F)cc2)OCc2cc(CN)ccc21 (stereo not drawn) [Compound 5, 3-(5-(Aminomethyl)-1-(4-fluorophenyl)-1,3-dihydroisobenzofuran-1-yl)-N,N-dimethylpropan-1-amine] | 17.4 ± 0.8 min |  | 
CN(C)CCCC1(c2ccc(F)cc2)OCc2cc(CN3CCN(c4ccccc4)CC3)ccc21 (stereo not drawn) [Compound 8, 3-(1-(4-Fluorophenyl)-5-((4-phenylpiperazin-1-yl)methyl)-1,3-dihydroisobenzofuran-1-yl)-N,N-dimethylpropan-1-amine] |  | 16.4 ± 0.3 min | 
COc1ccccc1N1CCN(Cc2ccc3c(c2)COC3(CCCN(C)C)c2ccc(F)cc2)CC1 (stereo not drawn) [Compound 9, 3-(1-(4-Fluorophenyl)-5-((4-(2-methoxyphenyl)piperazin-1-yl)methyl)-1,3-dihydroisobenzofuran-1-yl)-N,N-dimethylpropan-1-amine] | 16.3 ± 0.1 min |  | 
CN(C)CCCC1(c2ccc(F)cc2)OCc2cc(CN3CCN(c4cccc(Cl)c4Cl)CC3)ccc21 (stereo not drawn) [Compound 10, 3-(5-((4-(2,3-Dichlorophenyl)piperazin-1-yl)methyl)-1-(4-fluorophenyl)-1,3-dihydroisobenzofuran-1-yl)-N,N-dimethylpropan-1-amine] | 24.8 ± 1.1 min |  | 
CN(C)CCCC1(c2ccc(F)cc2)OCc2cc(CNCc3ccc4ccccc4c3)ccc21 (stereo not drawn) [Compound 13, 3-(1-(4-Fluorophenyl)-5-(((naphthalen-2-ylmethyl)amino)methyl)-1,3-dihydroisobenzofuran-1-yl)-N,N-dimethylpropan-1-amine] |  | 22.1 ± 1.5 min | 
CN(C)CCCC1(c2ccc(F)cc2)OCc2cc(Br)ccc21 (stereo not drawn) [Compound 17] |  |  | Ki(NET)/Ki (SERT) (SERT; Table 1): >10,000; Ki (NET): 28.4 µM
CN(C)CCCC1(c2ccc(F)cc2)OCc2cc(-c3ccc([N+](=O)[O-])cc3)ccc21 (stereo not drawn) [Compound 19, 3-(1-(4-Fluorophenyl)-5-(4-nitrophenyl)-1,3-dihydroisobenzofuran-1-yl)-N,N-dimethylpropan-1-amine] |  |  | [3H] S-1 dissoc. t½ (min) at 24°C (hSERT WT): 40.2 ± 7.0 min; 24°C dissociation t½ calculated to a t½ at 18°C (hSERT WT; [2]): 97 ± 17 min
CNCCCC1(c2ccc(F)cc2)OCc2cc(C#N)ccc21 (stereo not drawn) [Compound 38, 1-(4-Fluorophenyl)-1-(3-(methylamino)propyl)-1,3-dihydroisobenzofuran-5-carbonitrile] |  |  | Ki (SERT): 5.04 ± 0.176 nM; Ki(NET)/Ki (SERT) (SERT; Table 3): 174.6; Ki (NET): 0.88 ± 0.0124 µM
CN(CCCC1(c2ccc(F)cc2)OCc2cc(C#N)ccc21)CCc1ccccc1 (stereo not drawn) [Compound 42, 1-(4-Fluorophenyl)-1-(3-(methyl(phenethyl)amino)propyl)-1,3-dihydroisobenzofuran-5-carbonitrile] |  |  | [3H] S-1 dissoc. t½ (min) at 24°C (hSERT WT): 45.4 ± 5.9 min; 24°C dissociation t½ calculated to a t½ at 18°C (hSERT WT; [2]): 110 ± 14 min
CN(CCCC1(c2ccc(F)cc2)OCc2cc(C#N)ccc21)Cc1ccc2c(c1)Cc1ccccc1-2 (stereo not drawn) [Compound 50, 1-(3-(((9H-Fluoren-2-yl)methyl)(methyl)amino)propyl)-1-(4-fluorophenyl)-1,3-dihydroisobenzofuran-5-carbonitrile] |  |  | Ki(NET)/Ki (SERT) (SERT; Table 3): >100
CN(C)CCCC1(c2ccc(F)cc2)OCc2cc(I)ccc21 (stereo not drawn) [Compound 63] | 34.4 ± 6.6 min |  | 

More lines, main results first:

[3H] S-1 dissoc. t½ (min) at 18°C (hSERT WT; [1]) | [3H] S-1 dissoc. t½ (min) at 18°C (hSERT WT) | SMILES | further results
 | 11.4 ± 0.2 min | CN(C)CCCC1(c2ccc(F)cc2)OCc2cc(CNCc3ccc4c(c3)Cc3ccccc3-4)ccc21 (stereo not drawn) [Compound 14, 3-(5-((((9H-Fluoren-2-yl)methyl)amino)methyl)-1-(4-fluorophenyl)-1,3-dihydroisobenzofuran-1-yl)-N,N-dimethylpropan-1-amine] | 
21.4 ± 0.3 min |  | CN(C)CCCC1(c2ccc(F)cc2)OCc2cc(CNCc3ccc4c(c3)COC4(CCCN(C)C)c3ccc(F)cc3)ccc21 (stereo not drawn) [Compound 15, 3-(5-((((1-(3-(Dimethylamino)propyl)-1-(4-fluorophenyl)-1,3-dihydroisobenzofuran-5-yl)methyl)amino)methyl)-1-(4-fluorophenyl)-1,3-dihydroisobenzofuran-1-yl)-N,N-dimethylpropan-1-amine] | 
 | 23.1 ± 2.9 min | CN(C)CCCC1(c2ccc(F)cc2)OCc2cc(/C=C/Cc3ccccc3)ccc21 (stereo not drawn) [Compound 21, (E)-3-(1-(4-Fluorophenyl)-5-(3-phenylprop-1-en-1-yl)-1,3-dihydroisobenzofuran-1-yl)-N,N-dimethylpropan-1-amine] | 
 | 33.2 ± 5.8 min | CN(C)CCCC1(c2ccc(F)cc2)OCc2c(I)cccc21 (stereo not drawn) [Compound 22, 3-(1-(4-Fluorophenyl)-4-iodo-1,3-dihydroisobenzofuran-1-yl)-N,N-dimethylpropan-1-amine] | 
24.7 ± 5.4 min |  | CN(C)CCCC(O)(c1ccc(Br)cc1)c1ccc(C#N)cc1CO (stereo not drawn) [Compound 24, 4-(1-(4-Bromophenyl)-4-(dimethylamino)-1-hydroxybutyl)-3-(hydroxymethyl)benzonitrile] | 
59.6 ± 1.0 min |  | CN(CCCC1(c2ccc(F)cc2)OCc2cc(C#N)ccc21)Cc1csc2ccccc12 (stereo not drawn) [Compound 45, 1-(3-((Benzo[b]thiophen-3-yl-methyl)(methyl)amino)propyl)-1-(4-fluorophenyl)-1,3-dihydroisobenzofuran-5-carbonitrile] | 
 | 41.2 ± 2.8 min | CN(CCCC1(c2ccc(F)cc2)OCc2cc(C#N)ccc21)Cc1ccc(N(C)C)cc1 (stereo not drawn) [Compound 46, 1-(3-((4-(Dimethylamino)benzyl)(methyl)amino)propyl)-1-(4-fluorophenyl)-1,3-dihydroisobenzofuran-5-carbonitrile] | 
29.0 ± 1.3 min |  | CN(CCCC1(c2ccc(F)cc2)OCc2cc(C#N)ccc21)Cc1ccnc2ccccc12 (stereo not drawn) [Compound 48, 1-(4-Fluorophenyl)-1-(3-(methyl(quinolin-4-ylmethyl)amino)propyl)-1,3-dihydroisobenzofuran-5-carbonitrile] | 
 | 60.1 ± 1.0 min | CN(CCCC1(c2ccc(F)cc2)OCc2cc(C#N)ccc21)Cc1ccc2ccccc2c1 (stereo not drawn) [Compound 49, 1-(4-Fluorophenyl)-1-(3-(methyl(naphthalen-2-ylmethyl)amino)propyl)-1,3-dihydroisobenzofuran-5-carbonitrile] | 
 | 52.0 ± 7.6 min | CN(CCCC1(c2ccc(F)cc2)OCc2cc(C#N)ccc21)C1CC=C(c2c[nH]c3ccccc23)CC1 (stereo not drawn) [Compound 60, 1-(3-((4-(1H-Indol-3-yl)cyclohex-3-en-1-yl)(methyl)amino)propyl)-1-(4-fluorophenyl)-1,3-dihydroisobenzofuran-5-carbonitrile] | 
43.1 ± 6.2 min |  | CN(C)CCCC1(c2ccc(F)cc2)OCc2cc(-c3cccc(N)c3)ccc21 (stereo not drawn) [Compound 61] | 
